Measurements as given in patent US5831000A, “Hybrid calcitonin” (Chugai Seiyaku Kabushiki Kaisha, priority 1990, dated 1998).
Several values for one entry are separate records, joined by “and”; a condition that tells them apart may be missing. Identical values can stand only once. Like-named read-outs stand apart in the source and are kept apart here. Positions of bridges follow the written chain, without caps; N, C: chain ends. Residues, ends and D or L forms follow the SMILES beside them.

Assays:
[1] = test system: Female beagles; conditions: dog, in vivo
Description: (§1) One hour later, enteric aspirin tablets (containing 200 mg of the active ingredient) were administered orally together with 25 ml of water. Thereafter, blood samples were taken from the other cephalic vein at given time intervals, and the plasma obtained in the usual manner was stored at -20° C. until measurement.
(§2) As it passes through the intestinal wall, most of the ingested aspirin is metabolized and enters the blood stream as salicylic acid. […] Ethanol (200 μl) was added to 50 μl of plasma and the mixture was centrifuged at 10,000 rpm×1 min, with the resulting supernatant being subjected to HPLC.
(§3) The difference between the time from calcitonin administration to the absorption of aspirin and the time from physiological saline administration to the absorption of aspirin was calculated for each animal to determine the delay in gastric emptying time.

[2] = test system: hypercalcemic rats; test: Efficacy of calcitonins against hypercalcemia (vitamin D3 hypercalcemic rats); type: in vivo, rat; conditions: 4 IU/kg subcutaneously, FIG. 1
Description: Vitamin D3 (5 mg/kg) was administered orally to 5-wk old SD male rats for 4 consecutive days to construct experimental models of hypercalcemic rats. […] Blood was sampled at given time intervals and the concentration of calcium in plasma was measured.

[3] = test system: conscious dog; test: Effects of calcitonins on gastrointestinal motility (IMC) in conscious dog; type: in vivo, beagle dog; conditions: for effect on the IMC / gastrointestinal motility: i.v., conscious dog, summary of Table 10
Text: A healthy beagle dog weighing about 10 kg was anesthetized with an i.v. injection of pentobarbital sodium and the abdominal cavity was opened under aseptic conditions.
Extraluminal force transducers were sutured onto the serosa of the gastric antrum stomach, duodenum and jejunum to measure circular muscle contraction, as reported previously (Itoh et al. Gastroenterol Jpn. 12, 275 1977).
The lead wires of these transducers were out of the abdominal cavity and then brought out through a skin incision made between the scapulae.
After the abdominal surgery, a 5-cm longitudinal skin incision was made in the right Frontal neck to expose the external jugular vein.
After the operation, a jacket protector was placed on the dog to protect the lead wires and the Silastic tube.
The dog was housed in individual experimental cage, and given commercial dog food at 5:00 P.M. and water was given freely.
The gastrointestinal motor activity was recorded on a thermal pen writing recorder (WR-3101, Graphtic, Tokyo, Japan) by connecting the lead wires of the transducers to the connecting cables from the amplifiers (UG-5, Nihon Kohden, Tokyo, Japan).
About two weeks postoperation, gastrointestinal contractile activity could be divided into two main patterns of activity, the interdigestive and digestive states.
In the interdigestive state, IMC (interdigestive migrating motor complex) were seen to occur at regular intervals of 100 to 120 min. in the gastric antrum, and migrated through the duodenum and jejunum at a constant velocity.
In all animals, feeding disrupted the regular IMC pattern. Experiments were carried out during interdigestive state. The drug was dissolved into 0.9% saline and administered through the indwelling Silastic tube for about 10 seconds in a volume of 0.3 ml/kg.
15 Min after the end of the IMC in the gastric antrum, which were subsequently flushed in with 0.9% saline.
The time until the next IMC is occurred from administration of the drug was measured, and used as a index for inhibitory activity of the drug on gastrointestinal motility.

[4] = test system: Rats; test: Effects of calcitonins on the inhibition of body weight gain and appetite; conditions: intramuscular, 12.5, 50 and 200 IU/kg, 24 h later
Description: Each of the calcitonins was administered in three different doses: 12.5 IU/kg, 50 IU/kg and 200 IU/kg. For the body weight changes, the measured values were averaged for 5 rats, and for the food consumption, the measured values for 5 rats were added together.

[5] = test system: Female beagles; test: Effects of calcitonins on gastric emptying time (enteric aspirin absorption); conditions: for Delay time (difference in time to aspirin absorption between calcitonin and physiological saline) / Lag time (time from aspirin administration to its absorption): individual animals
Description: as §1, §2, §3

[6] = test system: anti-salmon calcitonin human sera; test: Cross reaction between anti-salmon calcitonin human antibody and hybrid calcitonin (competition with 125I labelled salmon calcitonin); type: binding; conditions: anti-salmon calcitonin human sera Nos. 1-4, FIG. 5
Description: Salmon calcitonin was synthesized by an ordinary procedure of solid-phase synthesis. Salmon calcitonin labelled with ^125 I was prepared by the Tejedor method (Tejedor, F. and Ballesta, J. P. G.; Analytical Biochemistry, 127, 143-149 (1982)).
Four types of human sera that had been verified to contain antibody after administration of salmon calcitonin were furnished from Dr. Frederick R. Singer (CEDERS-SINAI MEDICAL CENTER). The antibody titres of those sera against salmon calcitonin were as follows:
A 0.1M borate buffer solution (pH 8.0) containing 0.5% BSA, 0.9% NaCl, 0.1% NaN3 and 0.05% Tween 20 was used as a reaction buffer. This reaction buffer, anti-salmon calcitonin human serum (diluted with the reaction buffer to a final dilution of 100-6,400) and a solution of labelled calcitonin were charged into an assist tube (Spitz type of Salschted Inc. measuring 12×75 mm) in the respective volumes shown below, stirred thoroughly, and left to stand overnight at room temperature.
The reaction solution was mixed well with 500 μl of 0.2% BGG (bovine γ-globulin, Sigma), further mixed with 1 ml of 25% PEG #6000, stirred thoroughly and thereafter left to stand at room temperature for 15 min. […] After removing the supernatant by aspiration, the radioactivity level of the residue was measured with a gamma-counter. […]

Row | Compound | action in delaying the gastric emptying time [1] | effect on elevated blood (plasma) calcium concentration [2] | effect on the IMC / gastrointestinal motility [3] | body weight change (inhibition of body weight gain) ([4]; FIG. 3) | food consumption (appetite) ([4]; FIG. 4) | action in delaying the gastric emptying time ([5]; beagles, summary of Table 9) | Delay time (difference in time to aspirin absorption between calcitonin and physiological saline) ([5]; dose 6 μg (1.2 IU)/kg i.v.) | Lag time (time from aspirin administration to its absorption) ([5]; dose 6 μg (1.2 IU)/kg i.v.) | Delay time (difference in time to aspirin absorption between calcitonin and physiological saline) ([5]; dose 100 μg (20.0 IU)/kg i.v.) | Lag time (time from aspirin administration to its absorption) ([5]; dose 100 μg (20.0 IU)/kg i.v.) | delay of the occurrence of the next IMC ([3]; dose of 3 μg/kg i.v.) | dose at which competition with 125I labelled salmon calcitonin started [6]
1 | CSCC[C@H](NC(=O)[C@@H]1CSSC[C@H](N)C(=O)NCC(=O)N[C@@H](CC(N)=O)C(=O)N[C@@H](CC(C)C)C(=O)N[C@@H](CO)C(=O)N[C@@H]([C@@H](C)O)C(=O)N1)C(=O)N[C@@H](CC(C)C)C(=O)NCC(=O)N[C@H](C(=O)N[C@@H](Cc1ccc(O)cc1)C(=O)N[C@H](C(=O)N[C@@H](CCC(N)=O)C(=O)N[C@@H](CC(=O)O)C(=O)N[C@@H](Cc1ccccc1)C(=O)N[C@@H](Cc1c[nH]cn1)C(=O)N[C@@H](CCCCN)C(=O)N[C@@H](CC(C)C)C(=O)N[C@@H](CCC(N)=O)C(=O)N[C@H](C(=O)N[C@@H](Cc1ccc(O)cc1)C(=O)N1CCC[C@H]1C(=O)N[C@@H](CCCNC(=N)N)C(=O)N[C@H](C(=O)N[C@@H](CC(N)=O)C(=O)N[C@H](C(=O)NCC(=O)N[C@@H](CO)C(=O)NCC(=O)N[C@H](C(=O)N1CCC[C@H]1C(N)=O)[C@@H](C)O)[C@@H](C)O)[C@@H](C)O)[C@@H](C)O)[C@@H](C)O)[C@@H](C)O [Example 1, (1-16) human/(17-32) salmon hybrid calcitonin] (H-CGNLSTCMLGTYTQDFHKLQTYPRTNTGSGTP-NH2; disulfide 1-7) | more similar to human calcitonin than salmon calcitonin in delaying to gastric emptying time |  |  |  |  |  |  |  |  |  |  | 
2 | CC[C@H](C)[C@H](NC(=O)[C@H](C)NC(=O)[C@@H](NC(=O)[C@H](CCC(N)=O)NC(=O)[C@@H]1CCCN1C(=O)[C@H](Cc1ccccc1)NC(=O)[C@@H](NC(=O)[C@H](Cc1c[nH]cn1)NC(=O)[C@H](Cc1ccccc1)NC(=O)[C@H](CCCCN)NC(=O)[C@H](CC(N)=O)NC(=O)[C@H](Cc1ccccc1)NC(=O)[C@H](CC(=O)O)NC(=O)[C@H](CCC(N)=O)NC(=O)[C@@H](NC(=O)[C@H](Cc1ccc(O)cc1)NC(=O)[C@@H](NC(=O)CNC(=O)[C@H](CC(C)C)NC(=O)[C@H](CCSC)NC(=O)[C@@H]1CSSC[C@H](N)C(=O)NCC(=O)N[C@@H](CC(N)=O)C(=O)N[C@@H](CC(C)C)C(=O)N[C@@H](CO)C(=O)N[C@@H]([C@@H](C)O)C(=O)N1)[C@@H](C)O)[C@@H](C)O)[C@@H](C)O)[C@@H](C)O)C(=O)NCC(=O)N[C@H](C(=O)NCC(=O)N[C@@H](C)C(=O)N1CCC[C@H]1C(N)=O)C(C)C [human calcitonin] |  | caused rapid reduction in the elevated blood calcium concentration | only a slight effect on the IMC | no differences | no differences | weak in such action | 1.3 h and 2.6 h and 2.9 h | 3.0 h and 3.9 h and 4.0 h | 4.4 h and 5.0 h | 5.0 h and 6.9 h |  | 
3 | CC(C)C[C@H](NC(=O)[C@H](CCCCN)NC(=O)CNC(=O)[C@H](CC(C)C)NC(=O)[C@@H](NC(=O)[C@@H]1CSSC[C@H](N)C(=O)N[C@@H](CO)C(=O)N[C@@H](CC(N)=O)C(=O)N[C@@H](CC(C)C)C(=O)N[C@@H](CO)C(=O)N[C@@H]([C@@H](C)O)C(=O)N1)C(C)C)C(=O)N[C@@H](CO)C(=O)N[C@@H](CCC(N)=O)C(=O)N[C@@H](CCC(=O)O)C(=O)N[C@@H](CC(C)C)C(=O)N[C@@H](Cc1c[nH]cn1)C(=O)N[C@@H](CCCCN)C(=O)N[C@@H](CC(C)C)C(=O)N[C@@H](CCC(N)=O)C(=O)N[C@H](C(=O)N[C@@H](Cc1ccc(O)cc1)C(=O)N1CCC[C@H]1C(=O)N[C@@H](CCCNC(=N)N)C(=O)N[C@H](C(=O)N[C@@H](CC(N)=O)C(=O)N[C@H](C(=O)NCC(=O)N[C@@H](CO)C(=O)NCC(=O)N[C@H](C(=O)N1CCC[C@H]1C(N)=O)[C@@H](C)O)[C@@H](C)O)[C@@H](C)O)[C@@H](C)O [salmon calcitonin] | very strong action in delaying the gastric emptying time | caused rapid reduction in the elevated blood calcium concentration | does-dependently inhibited the occurrence of the next IMC |  |  |  |  |  |  |  | 3 days | at least 1 ng/ml
